Results reported in patent publication US20170166555A1, “FUNCTIONALISED AND SUBSTITUTED INDOLES AS ANTI-CANCER AGENTS” (Novogen Limited, priority 2013, published 2017).
Where two headings read alike, the source gives them in different places.

Key:
Assay in all cases: Anti-proliferative assay, cell-titre luminescent reagent, 72 h (GVK-BIO)
Assay type in all cases: cell-based
[1] = test system: SK-N-SH neuroblastoma cells; settings: Homo sapiens
Procedure, shortened: (§1)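 Luminescent cell-titre viability was read 30 min after reagent addition, following 72 h compound exposure of cells pre-cultured 24 h at 37 °C, 5% CO2. Dose sets were 30–0.03 μM (4 points) or 30–0.1 μM (6 points), giving IC50 by linear regression or EC50 by nonlinear variable-slope fit vs vehicle.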

[2] = test system: DU145 prostate cancer cells; settings: Homo sapiens
Procedure, shortened: as §1

[3] = test system: SK-Mel-28 melanoma cells; settings: Homo sapiens
Procedure, shortened: as §1

[4] = test system: A549 non-small cell lung carcinoma cells; settings: Homo sapiens, read-out: IC50/μM Lung (NSLC) A549
Procedure, shortened: as §1

[5] = test system: CaCo2 colorectal cancer cells; settings: Homo sapiens
Procedure, shortened: as §1

[6] = test system: PC3 prostate cancer cells
Procedure, shortened: as §1

[7] = test system: MDA-MB-231 triple negative breast cancer cells; settings: Homo sapiens
Procedure, shortened: as §1

[8] = SK-N-SH, 30, 10, 3, 1, 0.3 and 0.1 μM, nonlinear regression (Table 5)
[9] = DU-145, 72 h, 30, 10, 3, 1, 0.3 and 0.1 μM, nonlinear regression (Table 5)
[10] = SK-MEL-28, 72 h, 30, 10, 3, 1, 0.3 and 0.1 μM, nonlinear regression (Table 5)
[11] = A549, 72 h, 30, 10, 3, 1, 0.3 and 0.1 μM, nonlinear regression (Table 5)
[12] = Caco-2, 72 h, 30, 10, 3, 1, 0.3 and 0.1 μM, nonlinear regression (Table 5)
[13] = 30, 10, 3, 1, 0.3 and 0.1 μM, nonlinear regression (Table 5)
[14] = MDA-MB-231, 72 h, 30, 10, 3, 1, 0.3 and 0.1 μM, nonlinear regression (Table 5)
[15] = SK-N-SH, 30, 3, 0.3 and 0.03 μM, linear regression (Tables 2-4)
[16] = DU-145, 72 h, 30, 3, 0.3 and 0.03 μM, linear regression (Tables 2-4)
[17] = SK-MEL-28, 72 h, 30, 3, 0.3 and 0.03 μM, linear regression (Tables 2-4)
[18] = A549, 72 h, 30, 3, 0.3 and 0.03 μM, linear regression (Tables 2-4)
[19] = Caco-2, 72 h, 30, 3, 0.3 and 0.03 μM, linear regression (Tables 2-4)
[20] = 30, 3, 0.3 and 0.03 μM, linear regression (Tables 2-4)
[21] = MDA-MB-231, 72 h, 30, 3, 0.3 and 0.03 μM, linear regression (Tables 2-4)

Row | SMILES | IC50 [1, 8] | IC50 [2, 9] | IC50 [3, 10] | IC50 [4, 11] | IC50 [5, 12] | IC50 [6, 13] | IC50 [7, 14] | IC50 [1, 15] | IC50 [2, 16] | IC50 [3, 17] | IC50 [4, 18] | IC50 [5, 19] | IC50 [6, 20] | IC50 [7, 21]
1 | COc1ccc(CCN2CCN(Cc3ccc4c(c3)c(C)c(C)n4CCCN3CCN(C)CC3)CC2)cc1 [Compound 4111, 5-((4-(4-methoxyphenethyl)piperazin-1-yl)methyl)-2,3-dimethyl-1-(3-(4-methylpiperazin-1-yl)propyl)-1H-indole] | 3.4 µM | 11.3 µM | 2.4 µM | 5.5 µM | 7.9 µM | 7.5 µM | 3.9 µM | – | – | – | – | – | – | –
2 | COc1cccc(NC(=O)c2ccc(Nc3ccc4c(ccn4CCCN(C)C)c3)cc2)c1 [Compound 4103, 4-((1-(3-(dimethylamino)propyl)-1H-indol-5-yl)amino)-N-(3-methoxyphenyl)benzamide] | – | – | – | – | – | – | – | 2.9 µM | 3.7 µM | 5.4 µM | 3 µM | 5 µM | 5.4 µM | 2.7 µM
3 | CN(C)CCCn1ccc2cc(Oc3ccc(C(=O)Nc4ccc5c(c4)OCO5)cc3)ccc21 [Compound 4090, N-(benzo[d][1,3]dioxol-5-yl)-4-((1-(3-(dimethylamino)propyl)-1H-indol-5-yl)oxy)benzamide] | 6.3 µM | 4.6 µM | 7.2 µM | 8.4 µM | 5.3 µM | 2.5 µM | 9.6 µM | – | – | – | – | – | – | –
4 | CN(C)CCCn1ccc2cc(Cc3cccc(C(=O)Nc4ccc5c(c4)OCO5)c3)ccc21 [Compound 4047, N-(benzo[d][1,3]dioxol-5-yl)-3-((1-(3-(dimethylamino)propyl)-1H-indol-5-yl)methyl)benzamide] | – | – | – | – | – | – | – | 3.1 µM | 3.4 µM | 2.5 µM | 3 µM | 3 µM | 3.1 µM | 3 µM
5 | Cc1c(C)n(CCCN2CCN(C)CC2)c2ccc(C(=O)N3CCN(CCc4ccc(F)cc4)CC3)cc12 [Compound 4120, (2,3-dimethyl-1-(3-(4-methylpiperazin-1-yl)propyl)-1H-indol-5-yl)(4-(4-fluorophenethyl)piperazin-1-yl)methanone] | – | – | – | – | – | – | – | 13.8 µM | > 30 µM | 17.7 µM | 23 µM | > 30 µM | > 30 µM | > 30 µM
6 | COc1cccc(NC(=O)c2cccc(Nc3ccc4c(ccn4CCCN(C)C)c3)c2)c1 [Compound 4071] | – | – | – | – | – | – | – | 3.7 µM | 4.7 µM | 4.9 µM | 4 µM | 12 µM | 7.6 µM | 3.4 µM
7 | Cc1c(C)n(CCCN(C)C)c2ccc(Nc3ccc(C(=O)Nc4cccc(F)c4)cc3)cc12 [Compound 4107, 4-((1-(3-(dimethylamino)propyl)-2,3-dimethyl-1H-indol-5-yl)amino)-N-(3-fluorophenyl)benzamide] | – | – | – | – | – | – | – | 3.6 µM | 3.5 µM | 2.8 µM | 2.9 µM | 3.6 µM | 3.5 µM | 2.8 µM
8 | COc1ccc(NC(=O)c2ccc(Nc3ccc4c(ccn4CCCN(C)C)c3)cc2)cc1 [Compound 4100, 4-((1-(3-(dimethylamino)propyl)-1H-indol-5-yl)amino)-N-(4-methoxyphenyl)benzamide] | – | – | – | – | – | – | – | 3.6 µM | > 30 µM | 2.5 µM | 4.5 µM | > 30 µM | > 30 µM | 5.2 µM
9 | Cc1c(C)n(CCCN(C)C)c2ccc(Oc3cccc(C(=O)Nc4ccc(F)cc4)c3)cc12 [Compound 4061] | – | – | – | – | – | – | – | 2.3 µM | 3 µM | 2.5 µM | 3 µM | 3.7 µM | 2.2 µM | 3.2 µM
10 | Cc1c(C)n(CCCN2CCN(C)CC2)c2ccc(C(=O)N3CCN(CCc4ccccc4)CC3)cc12 [Compound 4127, (2,3-dimethyl-1-(3-(4-methylpiperazin-1-yl)propyl)-1H-indol-5-yl)(4-phenethylpiperazin-1-yl)methanone] | – | – | – | – | – | – | – | 10.5 µM | > 30 µM | 14.4 µM | 13.1 µM | 10.7 µM | 12.9 µM | 13.5 µM
11 | CN(C)CCCn1ccc2cc(Nc3cccc(C(=O)Nc4cccc(F)c4)c3)ccc21 [Compound 4070, 3-((1-(3-(dimethylamino)propyl)-1H-indol-5-yl)amino)-N-(3-fluorophenyl)benzamide] | – | – | – | – | – | – | – | 2.2 µM | 3.1 µM | 2.5 µM | 2.3 µM | 1.7 µM | 2.9 µM | 1.7 µM
12 | Cc1c(C)n(CCCN(C)C)c2ccc(Cc3ccc(C(=O)Nc4ccccc4)cc3)cc12 [Compound 4087, 4-((1-(3-(dimethylamino)propyl)-2,3-dimethyl-1H-indol-5-yl)methyl)-N-phenylbenzamide] | 5.6 µM | 7.1 µM | 4.8 µM | 8.9 µM | 23.1 µM | 7.4 µM | 7.5 µM | – | – | – | – | – | – | –
13 | COc1cccc(NC(=O)c2cccc(Cc3ccc4c(c3)c(C)c(C)n4CCCN(C)C)c2)c1 [Compound 4054] | – | – | – | – | – | – | – | 4.5 µM | 4.5 µM | 4.1 µM | 3.9 µM | 5.1 µM | 3.9 µM | 4.6 µM
14 | Cc1c(C)n(CCCN(C)C)c2ccc(Cc3cccc(C(=O)Nc4cccc(F)c4)c3)cc12 [Compound 4053] | – | – | – | – | – | – | – | 3.8 µM | 4.3 µM | 2.5 µM | 2 µM | 4.6 µM | 3.7 µM | 2.5 µM
15 | Cc1c(C)n(CCCN(C)C)c2ccc(Nc3ccc(C(=O)Nc4ccc(F)cc4)cc3)cc12 [Compound 4104, 4-((1-(3-(dimethylamino)propyl)-2,3-dimethyl-1H-indol-5-yl)amino)-N-(4-fluorophenyl)benzamide] | – | – | – | – | – | – | – | 3.4 µM | 4.1 µM | 3.6 µM | 4 µM | 3.2 µM | 4.1 µM | 4.2 µM
16 | CN(C)CCCn1ccc2cc(Cc3cccc(C(=O)Nc4cccc(F)c4)c3)ccc21 [Compound 4048, 3-((1-(3-(dimethylamino)propyl)-1H-indol-5-yl)methyl)-N-(3-fluorophenyl)benzamide] | – | – | – | – | – | – | – | 3.9 µM | 3.3 µM | 3.1 µM | 3 µM | 6.9 µM | 3.8 µM | 3.2 µM
17 | Cc1c(C)n(CCCN2CCN(C)CC2)c2ccc(C(=O)N3CCN(CCc4ccc(O)cc4)CC3)cc12 [Compound 4122, (2,3-dimethyl-1-(3-(4-methylpiperazin-1-yl)propyl)-1H-indol-5-yl)(4-(4-hydroxyphenethyl)piperazin-1-yl)methanone] | > 30 µM | > 30 µM | > 30 µM | > 30 µM | > 30 µM | > 30 µM | > 30 µM | – | – | – | – | – | – | –
18 | COc1ccc(NC(=O)c2ccc(Oc3ccc4c(ccn4CCCN(C)C)c3)cc2)cc1 [Compound 4089, 4-((1-(3-(dimethylamino)propyl)-1H-indol-5-yl)oxy)-N-(4-methoxyphenyl)benzamide] | 4.4 µM | 4.4 µM | 4.3 µM | 7.7 µM | 13.2 µM | 4.4 µM | 5.2 µM | – | – | – | – | – | – | –
19 | Cc1c(C)n(CCCN(C)C)c2ccc(Cc3ccc(C(=O)Nc4cccc(F)c4)cc3)cc12 [Compound 4085, 4-((1-(3-(dimethylamino)propyl)-2,3-dimethyl-1H-indol-5-yl)methyl)-N-(3-fluorophenyl)benzamide] | – | – | – | – | – | – | – | 9.8 µM | 11 µM | 10.5 µM | 10.1 µM | 10.9 µM | 10.1 µM | 11.2 µM
20 | COc1ccc(NC(=O)c2ccc(Cc3ccc4c(ccn4CCCN(C)C)c3)cc2)cc1 [Compound 4078, 4-((1-(3-(dimethylamino)propyl)-1H-indol-5-yl)methyl)-N-(4-methoxyphenyl)benzamide] | – | – | – | – | – | – | – | 6.5 µM | 1.4 µM | 1.9 µM | 1.4 µM | 3.6 µM | 1.2 µM | 1.6 µM
21 | Cc1c(C)n(CCCN(C)C)c2ccc(Cc3cccc(C(=O)Nc4ccc(F)cc4)c3)cc12 [Compound 4050] | – | – | – | – | – | – | – | 4 µM | 4.3 µM | 2.6 µM | 3.1 µM | 4.2 µM | 4.2 µM | 3.7 µM
